The assay has as its system glycogen synthase. Kind of assay: Glycogen Synthase (GS) Assay. In kind it is biochemical. Conditions: for EC50: compound concentration needed to give 50% maximum activation; for GS SC200: compound concentration needed to stimulate 200% of the enzyme activity. The method, then:
Twelve μl per well of substrate solution containing glycogen (4.32 mg/ml), 2.67 mM UDP-glucose, 21.6 mM phospho(enol)pyruvate and 2.7 mM NADH in 30 mM glycylglycine, pH 7.3 buffer was added into a polystyrene 384-well assay plate (BD Biosciences).
Compound solutions (8 μl/well) at various concentrations (0-300 μM) were added to the assay plate (columns 5-24). Compound solution contains 30 mM glycylglycine, pH 7.3, 40 mM KCl, 20 mM MgCl2, 9.2% DMSO, with (columns 15-24) or without (columns 5-14) 20 mM glucose 6-phosphate.
Enzyme solution (12 μl/well) containing glycogen synthase (16.88 μg/ml), pyruvate kinase (0.27 mg/ml), lactate dehydrogenase (0.27 mg/ml) in 50 mM Tris-HCl, pH 8.0, 27 mM DTT and bovine serum albumin (BSA, 0.2 mg/ml) was added to the assay plate (columns 3-24). As a blank control, enzyme solution without glycogen synthase was added into the top half wells of columns 1-2. To the bottom half wells of columns 1-2 were added a known activator, glucose 6-phosphate (at final concentration 5 mM) in addition to the enzyme solution. The reaction mixture was incubated at room temperature. The assay plate was then read for absorbance at 340 nm on an Envision reader every 3 minutes up to a total of 15 minutes.
The enzyme activity (with or without compound) was calculated by the reaction rate and represented by the optical density change (μOD) per minute. Percent stimulation of glycogen synthase activity by a compound at various concentrations was calculated by the following formula: […]
wherein Rs is the reaction rate of the enzyme in the presence of compound and Rt is the reaction rate of the enzyme in the absence of compound.
SC200 is defined as the compound concentration that is needed to stimulate 200% of the enzyme activity. EC50 is defined as the compound concentration that is needed to give 50% maximum activation.

We go through 20 molecules from US20110112158A1, “BENZISOXAZOLE ANALOGS AS GLYCOGEN SYNTHASE ACTIVATORS” (priority 2009, published 2011).

Take `COc1cc(F)c(F)cc1-c1ccc(OCc2ccc3onc(N)c3c2)cc1` [Example 1, 5-(4′,5′-Difluoro-2′-methoxy-biphenyl-4-yloxymethyl)-benzo[d]isoxazol-3-ylamine]: a half-maximal response (EC50) required 1490 nM and the “GS SC200” value is 0.688 µM.
As to `CNc1noc2ccc(COc3ccc(-c4cc(F)c(F)cc4OC)cc3)cc12` [Example 2], a half-maximal effect (EC50) was put at 1970 nM and the “GS SC200” value turned out to be 0.514 µM.
In the same order, the values of `COc1cc(F)c(F)cc1-c1ccc(OCc2ccc3onc(N(C)CC(=O)O)c3c2)cc1` [Example 3] are 302 nM and 0.024 µM.
In the same order, the values of `COc1cc(F)c(F)cc1-c1ccc(OCc2ccc3onc(O)c3c2)cc1` [Example 4, 5-(4′,5′-Difluoro-2′-methoxy-biphenyl-4-yloxymethyl)-benzo[d]isoxazol-3-ol] are 172 nM and 0.032 µM.
Take `COc1cc(F)c(F)cc1-c1ccc(OCc2ccc3onc(OCC(=O)O)c3c2)cc1` [Example 5, [5-(4′,5′-Difluoro-2′-methoxy-biphenyl-4-yloxymethyl)-benzo[d]isoxazol-3-yloxy]-acetic acid]: a half-maximal response (EC50) required 1350 nM and the “GS SC200” value amounted to 0.492 µM.
In the same order, the values of `COc1cc(F)c(F)cc1-c1ccc(OCc2ccc3onc(OC(C)(C)C(=O)O)c3c2)cc1` [Example 6, 2-[5-(4′,5′-Difluoro-2′-methoxy-biphenyl-4-yloxymethyl)-benzo[d]isoxazol-3-yloxy]-2-methyl-propionic acid] are 777 nM and 0.348 µM.
In the same order, the values of `COc1cc(F)c(F)cc1-c1ccc(OCc2ccc3onc(OC(C)C(=O)O)c3c2)cc1` (stereo not shown) [Example 7, 2-[5-(4′,5′-Difluoro-2′-methoxy-biphenyl-4-yloxymethyl)-benzo[d]isoxazol-3-yloxy]-propionic acid] are 662 nM and 0.218 µM.
On to `COc1cc(F)c(F)cc1-c1ccc(OCc2ccc3onc(OC(C(=O)O)c4ccccc4)c3c2)cc1` (stereo not shown) [Example 8, [5-(4′,5′-Difluoro-2′-methoxy-biphenyl-4-yloxymethyl)-benzo[d]isoxazol-3-yloxy]-phenyl-acetic acid], for which the EC50 came to 1760 nM and the “GS SC200” value stood at 0.723 µM.
In the same order, the values of `COc1cc(F)c(F)cc1-c1ccc(OCc2ccc3onc(OCCC(=O)O)c3c2)cc1` [Example 9, 3-[5-(4′,5′-Difluoro-2′-methoxy-biphenyl-4-yloxymethyl)-benzo[d]isoxazol-3-yloxy]-propionic acid] are 1700 nM and 0.61 µM.
With `Oc1noc2c(COc3ccc(-c4cc(F)c(F)cc4F)cc3)cccc12` [Example 10, 7-(2′,4′,5′-Trifluoro-biphenyl-4-yl-oxymethyl)-benzo[d]isoxazol-3-ol], the EC50 amounted to 836 nM and the “GS SC200” value stood at 0.148 µM.
As for `COc1cc(F)c(F)cc1-c1ccc(OCc2cccc3c(O)noc23)cc1` [Example 11, 7-(4′,5′-Difluoro-2′-methoxy-biphenyl-4-yloxymethyl)-benzo[d] isoxazol-3-ol], the EC50 came to 158 nM and the “GS SC200” value came out at 0.014 µM.
The matching figures for `Oc1noc2c(COc3ccc(-c4cc(F)c(F)cc4Cl)cc3)cccc12` [Example 12, 7-(2′-Chloro-4′,5′-difluoro-biphenyl-4-yloxymethyl)-benzo[d]isoxazol-3-ol]: 702 nM and 0.406 µM.
`Cc1cc(F)c(F)cc1-c1ccc(OCc2cccc3c(O)noc23)cc1` [Example 13, 7-(4′,5′-Difluoro-2′-methyl-biphenyl-4-yloxymethyl)-benzo[d]isoxazol-3-ol]: it took 792 nM to reach a half-maximal effect (EC50) and the “GS SC200” value was found to be 0.523 µM.
With `COCCN(CC(=O)O)c1noc2ccc(COc3ccc(-c4cc(F)c(F)cc4OC)cc3)cc12` [Example 14, [[5-(4′,5′-Difluoro-2′-methoxy-biphenyl-4-yloxymethyl)-benzo[d]isoxazol-3-yl]-(2-methoxy-ethyl)-amino]-acetic acid], the half-maximal effective concentration (EC50) turned out to be 365 nM and the “GS SC200” value is 0.098 µM.
In the same order, the values of `COCCCN(CC(=O)O)c1noc2ccc(COc3ccc(-c4cc(F)c(F)cc4OC)cc3)cc12` [Example 15, [[5-(4′,5′-Difluoro-2′-methoxy-biphenyl-4-yloxymethyl)-benzo[d]isoxazol-3-yl]-(3-methoxy-propyl)-amino]-acetic acid] are 514 nM and 0.169 µM.
With `CCN(CC(=O)O)c1noc2ccc(COc3ccc(-c4cc(F)c(F)cc4OC)cc3)cc12` [Example 16, {[5-(4′,5′-Difluoro-2′-methoxy-biphenyl-4-yloxymethyl)-benzo[d]isoxazol-3-yl]-ethyl-amino}-acetic acid], the EC50 was found to be 631 nM and the “GS SC200” value amounted to 2.18 µM.
The matching figures for `COc1cc(F)c(F)cc1-c1ccc(OCc2ccc3onc(N(CC(=O)O)CC4CC4)c3c2)cc1` [Example 17]: 1160 nM and 0.438 µM.
In the same order, the values of `COc1cc(F)c(F)cc1-c1ccc(OCc2ccc3onc(N(CC(=O)O)CC4CCOCC4)c3c2)cc1` [Example 18, [[5-(4′,5′-Difluoro-2′-methoxy-biphenyl-4-yloxymethyl)-benzo[d]isoxazol-3-yl]-(tetrahydro-pyran-4-ylmethyl)-amino]-acetic acid] are 713 nM and 0.249 µM.
The matching figures for `COc1cc(F)c(F)cc1-c1ccc(OCc2cccc3c(N(C)CC(=O)O)noc23)cc1` [Example 19, {[7-(4′,5′-Difluoro-2′-methoxy-biphenyl-4-yloxymethyl)-benzo[d]isoxazol-3-yl]-methyl-amino}-acetic acid]: 4220 nM and 1.57 µM.
As for `Oc1noc2ccc(COc3ccc(-c4cc(F)c(F)cc4F)cc3)cc12` [Example 20, 5-(2′,4′,5′-Trifluoro-biphenyl-4-yloxymethyl)-benzo[d]isoxazol-3-ol], the EC50 was 422 nM and the “GS SC200” value came out at 0.247 µM.

In general, EC50 refers to the concentration that produces a half-maximal response.
